What was measured:
Human recombinant MMP-14 = target: T1, Human recombinant MMP-14 (Homo sapiens, UniProt P50281); assay: In vitro MMP inhibition analysis (fluorogenic peptide substrate cleavage), Ki; format: biochemical; details: Table 2
T1 construct: The catalytic domain enzyme was expressed in E. coli inclusion bodies, solubilized in urea; made in house
How it was run: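 Refolded catalytic domain of MMP-14 expressed in E. coli, activated with APMA or trypsin, incubated 1 h at room temperature with 4 μM MCA-peptide substrate in Tris buffer pH 7.5 with CaCl2. Cleavage rate followed by fluorescence (ex 330/em 420 nm). Ki from Morrison-equation fit; substrate at or below Km, so no substrate correction.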

Human recombinant MMP-2 = target: T2, Human recombinant MMP-2 (Homo sapiens, UniProt P08253); assay: as above; format: biochemical; details: Table 2
T2 construct: made in house; host or cells: MMP-2-transfected p2AHT2 cells
T2 sequence (P08253 110-660): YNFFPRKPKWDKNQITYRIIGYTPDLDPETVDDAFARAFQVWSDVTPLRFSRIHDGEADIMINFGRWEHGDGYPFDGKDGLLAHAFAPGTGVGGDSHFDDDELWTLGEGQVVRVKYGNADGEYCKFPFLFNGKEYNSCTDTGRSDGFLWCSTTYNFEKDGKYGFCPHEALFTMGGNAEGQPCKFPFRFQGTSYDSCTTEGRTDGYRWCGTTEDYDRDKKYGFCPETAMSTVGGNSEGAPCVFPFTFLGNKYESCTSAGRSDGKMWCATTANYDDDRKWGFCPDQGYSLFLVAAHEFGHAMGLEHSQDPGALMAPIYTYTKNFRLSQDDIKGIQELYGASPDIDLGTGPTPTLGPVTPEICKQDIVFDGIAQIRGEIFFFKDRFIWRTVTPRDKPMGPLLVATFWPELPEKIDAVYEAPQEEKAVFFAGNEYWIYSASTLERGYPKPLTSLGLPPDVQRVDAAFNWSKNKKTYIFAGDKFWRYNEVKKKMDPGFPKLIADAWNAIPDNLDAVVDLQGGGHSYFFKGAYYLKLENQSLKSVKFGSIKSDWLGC
How it was run: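 Human recombinant MMP-2 from transfected p2AHT2 cells was activated with APMA or trypsin and incubated 1 h at room temperature with compounds and 4 μM MCA-RPLGL(Dpa)ARER-NH2. Buffer was pH 7.5 Tris/NaCl/CaCl2, and fluorescence was read at ex 330/em 420 nm. Ki was fitted by Morrison's equation without substrate correction.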

Structure (SMILES)	Ki (Human recombinant MMP-14) [nM]	Ki (Human recombinant MMP-2) [nM]
CCCCc1nc(-c2ccc(S(=O)(=O)C3(C(=O)NO)CCOCC3)cc2)no1 [Example 105]	1730	5.79
COC(C)CCOc1ccc(-c2ccc(S(=O)(=O)C3(C(=O)NO)CCOCC3)cc2)cc1C(F)(F)F (centres unmarked) [Example 100]	> 10000	32.5
CC(C)CCOc1ccc(-c2ccc(S(=O)(=O)C3(C(=O)NO)CCOCC3)cc2)cc1 [Example 108]	744	0.497
O=C(NO)C1(S(=O)(=O)c2ccc(-c3ccc(CCO)cc3)cc2)CCOCC1 [Example 98]	52.6	0.158
CCN1CCC(C(=O)NO)(S(=O)(=O)c2ccc(-c3ccc(OCCOC)c(F)c3)cc2)CC1 [Example 110]	1850	0.539
O=C(NO)C1(S(=O)(=O)c2ccc(-c3ccc(-c4ccccc4)cc3)cc2)CCOCC1 [Example 104]	247	0.087
O=C(NO)C1(S(=O)(=O)c2ccc(-c3cnccn3)cc2)CCOCC1 [Example 71]	224	5.96
CCCCCc1ccc(-c2ccc(S(=O)(=O)C3(C(=O)NO)CCOCC3)cc2)c(F)c1 [Example 101]	929	0.878
CC(C)CCc1ccc(-c2ccc(S(=O)(=O)C3(C(=O)NO)CCOCC3)cc2)nc1 [Example 99]	421	0.112
CC(C)Cc1ccc(-c2ccc(S(=O)(=O)C3(C(=O)NO)CCOCC3)cc2)nc1 [Example 103]	342	0.278
COc1ccc(-c2ccc(S(=O)(=O)C3(C(=O)NO)CCOCC3)cc2)cc1F [Example 102]	11.1	0.078
COCCN1CCC(C(=O)NO)(S(=O)(=O)c2ccc(-c3ccc(OCCN4CCCC4)cc3)cc2)CC1 [Example 72]	2280	5.81
CCN1CCC(C(=O)NO)(S(=O)(=O)c2ccc(-c3ccc(OCCOC)cc3)cc2)CC1 [Example 111]	1790	0.645

Next, values leading:

Ki (Human recombinant MMP-14) [nM]	Ki (Human recombinant MMP-2) [nM]	Structure (SMILES)
1110	0.208	CCOCCOc1ccc(-c2ccc(S(=O)(=O)C3(C(=O)NO)CCN(CCOC)CC3)cc2)cc1 [Example 117]
2930	0.514	CCOCCOc1ccc(-c2ccc(S(=O)(=O)C3(C(=O)NO)CCN(CC)CC3)cc2)cc1 [Example 116]
681	0.168	COCCOc1ccc(-c2ccc(S(=O)(=O)C3(C(=O)NO)CCN(C4CC4)CC3)cc2)cc1F [Example 112]
585	0.217	COCCOc1ccc(-c2ccc(S(=O)(=O)C3(C(=O)NO)CCN(CCOC)CC3)cc2)cc1F [Example 114]
499	0.17	COCCOc1ccc(-c2ccc(S(=O)(=O)C3(C(=O)NO)CCN(C4CC4)CC3)cc2)cc1 [Example 113]
530	0.276	COCCOc1ccc(-c2ccc(S(=O)(=O)C3(C(=O)NO)CCN(CCOC)CC3)cc2)cc1 [Example 115]
